Experimental data: patent US12060570B2, “Vector-free intracellular delivery by reversible permeabilisation” (Avectas Limited, priority 2016, dated 2024)

How the values were obtained:
Format in all cases: cell-based
A549 cells [1] = test: Endocytosis inhibitor pretreatment, EGFP mRNA expression; details: n=3; for Expression of EGFP mRNA delivered by soluporation in the presence of inhibitor: pretreatment: Dynasore 4 mM, chloropromazine 20 μM, Nystatin 20 μg/ml, EIPA 100 μM
Protocol: To test the contribution of alternate uptake mechanisms such as active pathways and internalization in endocytotic vesicles, A549 cells were pretreated with Dynasore (4 mM) or chloropromazine (20 μM) to inhibit clathrin-mediated endocytosis or Nystatin (20 μg/ml) or EIPA (100 μM) to inhibit caveolar-mediated endocytosis and micropinocytosis respectively.

A549 cells [2] = test: Resealing of plasma membrane after permeabilization, PI uptake by flow cytometry; details: delivery solution without cargo, PI 100 μg/ml, n=3
Protocol: It was noted that the delivery method was very gentle on cells with little if any cell death or damage evident. […] To examine the rate of recovery of the cell membrane after permeabilization, delivery solution was applied to A549 cells in the absence of cargo. At subsequent time points (0 to 182.5 min), this delivery solution was removed and 50 μl PBS containing propidium iodide (PI) (100 μg/ml) is added. After 2 min incubation, the PI solution was removed and the cells were harvested. PI uptake was analysed by flow cytometry. For basal levels of PI uptake, untreated cells received 50 μl PI in PBS. […] After 6 minutes there is no further uptake. Thus not only do the cells load within 2 minutes of exposure to the delivery solution, but the membrane has effectively recovered its integrity within 6 minutes of beginning the procedure.

Jurkat cells = test: Delivery of fluorescently-labelled proteins to Jurkat monolayer on transwell insert, flow cytometry; details: soluporation
Protocol: In order to form a monolayer of suspension cells that would allow the cells to be presented optimally to the spray, a transwell insert system was used. Cells were seeded at 1×10^6 in 400 μl per insert and the media was removed by placing the transwell insert (Greiner bio-one; CAT #655640; 12 Well ThinCert; PET 0.4 μm) into a device that allowed a vacuum to be applied to the bottom of the insert (between −0.5 bar and −0.65 bar; see FIGS. 14A, B, C). Once the media was removed the remaining cells formed a monolayer to which the spray can be applied. Non-adherent cells such as PBMCs, primary T-cells, or a cell line, e.g., Jurkat T cells, were added to the insert system, the vacuum applied and the insert placed into a 12 well plate and sprayed with delivery solution (10 lid) containing test payload such as either fluorescently-labelled beta-lactoglobulin (BLG), bovine serum albumin (BSA) or ovalburnin (OVA). Stop solution (50 μl) was applied after a 2 minute incubation and 30 s later normal media (100 μl) was applied.

Compound | Expression of EGFP mRNA delivered by soluporation in the presence of inhibitor (A549 cells [1]) | also measured
O=C(N/N=C/c1ccc(O)c(O)c1)c1cc2ccccc2cc1O [Dynasore] | remained unchanged | GFP expression in lipofected cells (Lipofectamine 2000) (A549 cells [1]; Dynasore treated): significantly reduced
CCN(c1nc(N)c(C(=O)NC(=N)N)nc1Cl)C(C)C [EIPA] | remained unchanged | –
C[C@@H]1[C@H](O)[C@@H](C)/C=C/C=C/CC/C=C/C=C/C=C/C=C/C(O[C@H]2O[C@H](C)[C@@H](O)[C@H](N)[C@@H]2O)CC2O[C@](O)(CC(O)C(O)CCC(O)CC(O)CC(O)CC(=O)O[C@H]1C)CC(O)C2C(=O)O (some centres unmarked) [Nystatin] | remained unchanged | –
CN(C)CCCN1c2ccccc2Sc2ccc(Cl)cc21 [chloropromazine] | remained unchanged | –
CC[N+](C)(CC)CCC[n+]1c(-c2ccccc2)c2cc(N)ccc2c2ccc(N)cc21.[I-].[I-] [propidium iodide] | – | time post treatment over which cells remain permeable to PI before resealing (A549 cells [2]): ≤ 6 min
bovine serum albumin [BSA] | – | Expression levels (fluorescently-labelled protein) (Jurkat cells): 28.5%
ovalbumin | – | Expression levels (fluorescently-labelled protein) (Jurkat cells): 15.3%
